Assay results: article PMC8241002, “A tumor-targeting cRGD-EGFR siRNA conjugate and its anti-tumor effect on glioblastoma in vitro and in vivo” (Drug Delivery, 2017)
Oligonucleotides are written 5' to 3', each unit as a sugar letter and its base; * is a phosphorothioate linkage, no mark a phosphodiester; rarer units and linkages stand in square brackets, end groups in braces. Plain capitals give the bases only. d = 2'-deoxy (DNA); m = 2'-O-methyl; r = 2'-OH (RNA)

Columns and labels:
[1] = Serum stability in mouse serum (agarose gel electrophoresis); assay type: in vitro ADME; conditions: 37 °C
Experimental: Five microliters of 20 μM cRGD-siEGFR or EGFR siRNA was mixed with 5 μL of mouse serum and incubated at 37 °C for 0, 12, 24, 36 and 48 h. Aliquots were taken at each of the time points and subjected to electrophoresis in 1.2% non-denaturing agarose gels.
(§1) Figure S1. The characterization of cRGD-siEGFR conjugates and silencing efficiency of EGFR siRNA sequences. (A) The identification of cRGD-siEGFR by HPLC-MS. The measured mass of the sense strand conjugated with cRGD is 7923.4 Da (predicted mass is 7921.4 Da). (B) The analysis of purified cRGD-siEGFR with RP-HPLC. The purity of cRGD-siEGFR, calculated by the peak area normalization method, was 88.0%. (C) The serum stability of cRGD-siEGFR and EGFR siRNA sequences. Molecules were incubated in mouse serum at 37°C for the indicated time periods and then analyzed using agarose (1.2%) gel electrophoresis. (D) Gene silencing efficiency. U87MG cells were treated for 48 h with EGFR-targeting siRNAs, complexed with Lipofectamine 2000. The expression level of EGFR mRNA was analyzed by qRT-PCR. * P<0.05 vs. control group, # P<0.05 vs. siNC group, n=3

EGFR mRNA = test: Gene silencing efficiency of EGFR siRNA sequences complexed with Lipofectamine 2000 (qRT-PCR); assay type: cell-based, human; conditions: U87MG cells, 48 h, complexed with Lipofectamine 2000, EGFR mRNA by qRT-PCR, n=3
Experimental: The relative expression level of EGFR mRNA was tested by qRT-PCR.
The qRT-PCR and western blot analysis were conducted as previously described (Liu et al., [2014]).
as §1

Substance	degradation in mouse serum after 24 h ([1]; 5 μL of 20 μM mixed with 5 μL mouse serum, 24 h, 1.2% non-denaturing agarose gel electrophoresis)	silencing efficiency (EGFR mRNA)	stability (three 2′-O-Me modifications on both ends of both strands) ([1]; mouse serum, agarose gel electrophoresis)
unmodified RNA oligonucleotides: Sense 5’CAAAGUGUGUAACGGAAUAdTdT-3’; antisense 5’UAUUCCGUUACACACUUUGdTdT-3’ (sense rCrArArArGrUrGrUrGrUrArArCrGrGrArArUrAdTdT; antisense rUrArUrUrCrCrGrUrUrArCrArCrArCrUrUrUrGdTdT)	mostly degraded	–	–
EGFR siRNA-C: Sense 5’mCmAmAAGUGUGUAACGGAmAmUmAdTdT-3’; antisense 5’mUmAmUUCCGUUACACACUmUmUmGdTdT-3’ (sense CAAAGUGUGUAACGGAAUATT; antisense UAUUCCGUUACACACUUUGTT; sugars from the 5' end m3 r13 m3 d2, backbone not given here; further chemistry not fully specified)	–	over 80%	obviously improved
